Test results published in patent US20240122865A1, “Methods of Protecting RNA” (Pfizer Inc., priority 2021, published 2024).

Experiments:
Type in all cases: biochemical, Trichoderma atroviride
Chi18 model RNA [1] = experiment: TapeStation Assay, Chi18 model RNA; set-up: Conc. chi18#1 / Conc. chi18#2: unit not given here; details: for % Control N = 1 / % Control N = 2 / % Control Avg.: Chi18 RNA, 20 mM amino acids, 50 mM CAPS pH 11, 50° C. 15 min; for % Control N = 1 / % Control N = 2: vs Time 0; for % Control Avg.: vs Time 0, Avg N=2; for Conc. chi18#1 / Conc. chi18#2: intact Chi18 RNA after 15 min at 50° C.; for Conc. chi18#1: 20 mM amino acids in 50 mM CAPS pH 11, run #1; for Conc. chi18#2: 20 mM amino acids in 50 mM CAPS pH 11, run #2
Description: (§1) These assays were performed with amino acids and compared to a no-degradation baseline control to gauge degree of protection imparted by the amino acid. Multiple functional assay approaches were used where differing endpoints were measured including a droplet digital PCR (ddPCR) assay where intact RNA sequence was quantitated, a size exclusion base hydrolysis degradation assay that used a size exclusion column to determine the degree of degradation occurring to an mRNA construct, and finally, a TapeStation assay that utilizes capillary electrophoresis and optical detection to measure intact RNA. […] Affinity selection by mass spectrometry (ASMS), native electrospray ionization mass spectrometry (nESI-MS) and nuclear magnetic resonance (NMR) may be used as several complementary approaches to ascertain compound binding to RNA. The latter techniques utilize MS to measure mass of bound compound alone (ASMS), or mass of RNA and bound compound (nESI-MS). The nESI-MS and NMR studies may be conducted to provide direct analytical quantification of resulting complex via measurement of mass (nESI-MS) or chemical shifts (NMR). The ASMS experiment is conducted to determine saturation binding of the compound to RNA where resulting apparent binding constants (KD,App) may be generated. Further descriptions of the functional and binding assays are provided in the section below.
(§2) In principle, samples are loaded to the instrument where electrophoresis separates component RNA's on the basis of mass, and subsequently analyzes these optically as they travel through the capillary.
(§3) RNA samples were diluted to the appropriate concentration to fall within the linear range of detection for the RNA ScreenTape Assay. Model Chi18 or FgenL RNAs were diluted to 50 ng/μL in 50 mM CAPS buffer pH 11. Amino acid stocks were made up in 50 mM CAPS pH 11 and re-adjusted to >pH 11 after solubilization. […] The samples were aliquoted to PCR tubes for each time point (Time 0 or 15 minutes). Degradation reaction: Samples were incubated at 50° C. for 0 to 15 minutes in a thermocycler, removed at the appropriate time point and placed on ice. Time 0 samples remained on ice.

FgenL mRNA construct = experiment: Size Exclusion Base Hydrolysis Degradation Assay, FgenL; details: 25 mM amino acid; for T0 R1 peak area at 250 nm: FgenL 0.1 mg/mL, 50 mM CAPS, T=0, replicate 1; for T2 Avg, peak area as percentage of T=0 / T2 R1 peak area at 250 nm / T10 Avg, peak area as percentage of T=0 / T10 R1 peak area at 250 nm / T24 Avg, peak area as percentage of T=0 / T24 R1 peak area at 250 nm / T0 Avg, peak area as percentage of T=0: FgenL; for T2 Avg, peak area as percentage of T=0 / T2 R1 peak area at 250 nm / T10 Avg, peak area as percentage of T=0 / T10 R1 peak area at 250 nm / T24 Avg, peak area as percentage of T=0 / T24 R1 peak area at 250 nm: 50 mM CAPS pH 11, room temperature; for T2 Avg, peak area as percentage of T=0 / T2 R1 peak area at 250 nm: 2 hrs; for T2 R1 peak area at 250 nm / T10 R1 peak area at 250 nm / T24 R1 peak area at 250 nm: replicate 1; for T10 Avg, peak area as percentage of T=0 / T10 R1 peak area at 250 nm: 10 hrs; for T24 Avg, peak area as percentage of T=0 / T24 R1 peak area at 250 nm: 24 hrs; for T0 Avg, peak area as percentage of T=0: T=0 (reference)
Description: Basic assay procedure: RNA samples were diluted to 1.0 mg/mL in DNAase/RNAase free water. Amino acids were dissolved in water to a stock solution of 100 mM and a solution of 500 mM CAPS pH 11 was used. The two mRNA constructs tested were FgenL and Chi18. Each individual sample volume was 50 μL. To determine the amount of 1 M NaOH needed to adjust the final pH to 11.0 after the addition of all sample components, the sample volume was increased 100 fold (5 mL), the volume of 1 M NaOH recorded and this value was translated back down to the 50 μL sample volume.
The mRNA and amino acid were allowed to incubate for one hour prior to the addition of CAPS pH 11. All steps of the assay were conducted at room temperature.
Degradation reaction: After the CAPS addition, the samples were injected onto the Waters H-Class UPLC system to record the first timepoint, T=O. This resulting chromatogram was processed by integrating the area of absorbance at 250 nm for the mRNA construct. Immediately following this timepoint, the pH was adjusted to 11. Subsequent time points (2 hrs, 10 hrs, and 24 hrs) recorded the Absorbance Units (peak area) at 250 nm as a percentage of the peak area determined at T=O. Integration of the chromatogram for subsequent timepoints was conducted by analyzing the area of absorbance at 250 nm contained within the same time window in which the peak eluted in T=0 for the 100% intact mRNA.

Chi18 model RNA [2] = experiment: Droplet Digital Polymerase Chain Reaction (ddPCR) Assay, Chi18; details: percent protection, pH 11.0, 30° C., 16 hours, n = 2
Description: The ddPCR assays measure RNA integrity by converting intact RNA to cDNA by reverse transcription, then performing digital PCR in thousands of nanoliter-sized droplets for each sample. PCR is performed within each droplet, which allows for more sensitive detection of subtle changes in RNA concentration compared to traditional PCR or qPCR. Additionally, primers/probes specific to the 5′ end of the RNA/cDNA transcript(s) are used to assess fragment integrity—e.g. degraded RNA will have fewer 5′ positive droplets. The BioRad QX200 Droplet Digital PCR System was used for the ddPCR workflow.
Basic assay procedure: RNA samples (Chi18 or FgenL fragments) were diluted to 25 fg/μL or 10 fg/μL, respectively, in 50 mM […] buffer pH 11.0. Amino acid stocks were made up in 50 mM CAPS buffer, pH 11.0 and subsequently re-adjusted to pH 11.0, post solubilization. Amino acid stocks were tested in a dose-response format to determine EC50. An amino acid dilution plate containing a ˜300 mM (or appropriate) top-concentration of amino acid in 50 mM CAPS buffer was serially (half-log) diluted for 10 times. 0.6 μL of this compound dilution plate was spotted into a 96-well PCR plate (Thermo). Sample RNAs were added (6 μL) and incubated with test amino acid as described below.
Degradation reaction: Treated RNAs were incubated for 16 hours at 30° C. for Chi18 samples or 44° C. for FgenL samples. Upon completion of the degradation reaction, cDNA was made from the intact RNA by Reverse Transcription and ddPCR run for each sample (96 well plates). Positive 5′ droplet values were divided by the total accepted droplet values for each sample and a ratio value generated for each sample.
EC50 was determined by using a four parameter logistic equation: Y=A+((B−A)/(1+(C/X)D)); where Y is percent protection, X is compound concentration, A and B are minimum and maximum asymptotes, respectively, C is EC50, and D is Hill slope.

FgenL model RNA = experiment: TapeStation Assay, FgenL model RNA; set-up: Conc. FgenL#1 / Conc. FgenL#2: unit not given here; details: for % Control N = 1 / % Control N = 2 / % Control Average: FgenL RNA, 20 mM amino acids, 50 mM CAPS pH 11, 50° C. 15 min; for % Control N = 1 / % Control N = 2: vs Time 0; for % Control Average: vs Time 0, Avg N=2; for Conc. FgenL#1 / Conc. FgenL#2: intact FgenL RNA after 15 min at 50° C.; for Conc. FgenL#1: 20 mM amino acids in 50 mM CAPS pH 11, run #1; for Conc. FgenL#2: 20 mM amino acids in 50 mM CAPS pH 11, run #2
Description: as §1, §2, §3

| Compound | % Control N = 1 (Chi18 model RNA [1]) | % Control N = 2 (Chi18 model RNA [1]) | % Control Avg. (Chi18 model RNA [1]) | Conc. chi18#1 (Chi18 model RNA [1]) | Conc. chi18#2 (Chi18 model RNA [1]) | T0 R1 peak area at 250 nm (FgenL mRNA construct) | T2 Avg, peak area as percentage of T=0 (FgenL mRNA construct) | T2 R1 peak area at 250 nm (FgenL mRNA construct) | T10 Avg, peak area as percentage of T=0 (FgenL mRNA construct) | T10 R1 peak area at 250 nm (FgenL mRNA construct) | T24 Avg, peak area as percentage of T=0 (FgenL mRNA construct) | T24 R1 peak area at 250 nm (FgenL mRNA construct) | T0 Avg, peak area as percentage of T=0 (FgenL mRNA construct) | EC50 (Chi18 model RNA [2]) | % Control N = 1 (FgenL model RNA) | % Control N = 2 (FgenL model RNA) | % Control Average (FgenL model RNA) | Conc. FgenL#1 (FgenL model RNA) | Conc. FgenL#2 (FgenL model RNA) |
| --- | --- | --- | --- | --- | --- | --- | --- | --- | --- | --- | --- | --- | --- | --- | --- | --- | --- | --- | --- |
| N[C@@H](Cc1c[nH]cn1)C(=O)O [Histidine] | 3.0% | 3.2% | 3.1% | 1.58 | 1.68 | 18949 | 34.5% | 8325 | 0.0% | 0 | 0.0% | 0 | 100.0% | > 30 mM | 4.2% | 3.7% | 4.0% | 1.46 | 1.3 |
| O=C(O)[C@@H]1C[C@@H](O)CN1 [Hydroxyproline] | 17.3% | 17.3% | 17.3% | 9.2 | – | 16626 | 22.4% | 5048 | 0.0% | 0 | 0.0% | 0 | 100.0% | > 30 mM | 14.8% | 10.7% | 12.8% | 5.12 | 3.73 |
| CC[C@H](C)[C@H](N)C(=O)O [Isoleucine] | 19.3% | 24.2% | 21.8% | 10.3 | 12.8 | 14903 | 7.2% | 1687 | 0.0% | 0 | 0.0% | 0 | 100.0% | > 19 mM | 12.2% | 9.5% | 10.8% | 4.22 | 3.28 |
| CC(C)C[C@H](N)C(=O)O [Leucine] | 30.8% | 31.9% | 31.4% | 16.4 | 16.9 | 13599 | 27.3% | 4569 | 0.0% | 0 | 0.0% | 0 | 100.0% | > 25 mM | 24.3% | 16.9% | 20.6% | 8.37 | 5.85 |
